Data from patent US20050176826A1, “Use of asc-1 inhibitors to treat neurological and psychiatric disorders” (H. Lundbeck A/S, priority 2002, published 2005).

How the values were obtained:
[1] = target: T1, human asc-1 (Homo sapiens, UniProt Q9NS82); test: [3H]D-serine uptake into HEK293 cells expressing human asc-1; assay type: cell-based; settings: for inhibition of [3H]D-serine uptake (in words): HEK293 cells expressing the cloned asc-1
T1 construct: expressed in transfected cells; host or cells: HEK293 (ATCC CRL 1573), transient, vector pCI/neo
T1 sequence (Q9NS82 1-523): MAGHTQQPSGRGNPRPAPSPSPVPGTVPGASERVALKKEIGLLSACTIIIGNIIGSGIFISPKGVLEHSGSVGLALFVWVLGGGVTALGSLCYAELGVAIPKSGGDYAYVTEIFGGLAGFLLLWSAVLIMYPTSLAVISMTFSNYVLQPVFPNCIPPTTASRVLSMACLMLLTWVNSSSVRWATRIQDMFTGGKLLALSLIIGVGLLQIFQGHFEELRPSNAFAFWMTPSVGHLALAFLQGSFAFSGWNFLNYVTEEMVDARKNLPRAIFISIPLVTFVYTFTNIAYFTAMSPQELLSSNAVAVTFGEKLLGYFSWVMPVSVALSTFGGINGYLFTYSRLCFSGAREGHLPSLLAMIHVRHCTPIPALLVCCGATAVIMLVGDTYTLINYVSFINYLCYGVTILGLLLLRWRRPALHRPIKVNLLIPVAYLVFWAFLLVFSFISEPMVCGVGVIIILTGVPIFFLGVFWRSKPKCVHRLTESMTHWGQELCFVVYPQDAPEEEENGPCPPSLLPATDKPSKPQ
Method: Uptake was determined 2-4 days after the transfection.
(§1) Into cortical membranes: Cortex from male Wistar rats (150-200 g) was homogenized in 0.40 M sucrose and centrifuged at 1000×g for 10 min. […] Test compounds and tissue (1 mg orig. tissue/well) were added to 96 well plates and incubated with [^3H]-D-serine (specific activity=26.8 Ci/mmol, PerkinElmer, Cambridge, U.K.) (100 nM final concentration) for 5 min at 25° C. Samples were filtered on Unifilter GF/B glass fiber (Packard Biosciences, Meriden, Conn., USA) and washed with 3×0.25 mL assay buffer. Measurements of [^3H]-D-serine uptake into whole HEK293 cells expressing human asc-1 were performed in 96 well plates with similar conditions except that the cells were incubated for 15 min with radioligand and washed by dipping twice in cold assay buffer following incubation with radioligand. Accumulated radioactivity was extracted from the cells by adding 200 μL scintillation fluid/well (Ultima Gold, Packard Biosciences) and the plates were counted in a Microplates Scintillation Counter (Packard Biosciences). The D-serine uptake in samples containing test compounds was compared to controls without added compound or controls where transport via the asc-1 was inhibited by addition of e.g. 30 mM L-alanine.

[2] = target: T2, D-serine-sensitive Na+-independent transporter in rat cortical membranes (Rattus norvegicus, UniProt P63116); test: Na+-independent [3H]D-serine uptake into rat cortical membranes (synaptosomes); assay type: biochemical; settings: for inhibition of [3H]D-serine uptake (in words): rat cortical synaptosomes
T2 construct: from tissue; host or cells: rat cerebral cortex membranes (P2 synaptosomes), male Wistar rats
T2 sequence (P63116 1-530): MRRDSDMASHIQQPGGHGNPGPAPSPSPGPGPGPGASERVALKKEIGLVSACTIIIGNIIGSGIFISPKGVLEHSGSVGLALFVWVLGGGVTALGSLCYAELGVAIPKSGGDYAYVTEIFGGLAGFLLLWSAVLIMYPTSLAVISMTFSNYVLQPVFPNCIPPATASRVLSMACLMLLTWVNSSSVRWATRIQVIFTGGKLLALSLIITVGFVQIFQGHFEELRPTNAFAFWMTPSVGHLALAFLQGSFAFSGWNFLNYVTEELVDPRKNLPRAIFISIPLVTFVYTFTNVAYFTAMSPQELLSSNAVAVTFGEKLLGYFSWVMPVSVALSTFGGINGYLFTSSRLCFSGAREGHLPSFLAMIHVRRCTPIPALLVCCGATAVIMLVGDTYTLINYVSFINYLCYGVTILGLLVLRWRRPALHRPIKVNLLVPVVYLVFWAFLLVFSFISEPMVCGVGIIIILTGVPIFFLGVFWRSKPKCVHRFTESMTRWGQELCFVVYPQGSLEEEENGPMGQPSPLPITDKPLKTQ
T2 sequence (Q794F9 1-527 partner): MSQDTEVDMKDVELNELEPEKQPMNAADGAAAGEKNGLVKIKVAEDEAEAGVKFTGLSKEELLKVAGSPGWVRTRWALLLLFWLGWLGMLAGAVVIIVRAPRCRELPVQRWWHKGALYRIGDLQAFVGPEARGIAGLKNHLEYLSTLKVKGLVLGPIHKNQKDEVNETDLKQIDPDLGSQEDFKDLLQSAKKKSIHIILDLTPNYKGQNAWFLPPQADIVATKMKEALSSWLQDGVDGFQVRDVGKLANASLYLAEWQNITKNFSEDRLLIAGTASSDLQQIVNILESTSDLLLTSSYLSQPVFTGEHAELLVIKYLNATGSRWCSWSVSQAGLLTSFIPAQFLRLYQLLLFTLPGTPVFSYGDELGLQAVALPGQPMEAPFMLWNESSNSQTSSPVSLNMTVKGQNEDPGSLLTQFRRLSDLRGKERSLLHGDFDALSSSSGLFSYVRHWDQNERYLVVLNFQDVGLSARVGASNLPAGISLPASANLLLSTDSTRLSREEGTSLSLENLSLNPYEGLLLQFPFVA
Method: as §1

[3] = target: NMDA receptor (Homo sapiens, UniProt Q05586); settings: versus glycine; cited from earlier work

SMILES | inhibition of [3H]D-serine uptake (in words) [1] | inhibition of [3H]D-serine uptake (in words) [2] | co-agonist potency relative to glycine at the allosteric site on the NMDA receptor [3] | block of uptake via the asc system, including asc-1 ([1]; 30 mM) | block of [3H]D-serine uptake into rat cortical membranes ([2]; rat cortical membranes)
N=C(N)NCCC[C@H](N)C(=O)O [L-arginine] | Inactive | Inactive |  |  | 
N[C@@H](Cc1ccc(O)cc1)C(=O)O [L-tyrosine] | Less effective, but significant inhibition | Less effective, but significant inhibition |  |  | 
CC(C)[C@H](N)C(=O)O [L-valine] | Less effective, but significant inhibition | Less effective, but significant inhibition |  |  | 
N[C@@H](CC(=O)O)C(=O)O [L-aspartate] | Inactive | Inactive |  |  | 
N[C@@H](CCC(=O)O)C(=O)O [L-glutamate] | Inactive | Inactive |  |  | 
N[C@H](CO)C(=O)O [D-serine] |  |  | 3-4 fold |  | 
O=C(O)[C@@H]1CCCN1 [L-proline] | Inactive | Inactive |  |  | 
CC[C@H](C)[C@H](N)C(=O)O [L-isoleucine] | Less effective, but significant inhibition | Less effective, but significant inhibition |  |  | 
CC(C)C[C@H](N)C(=O)O [L-leucine] | Less effective, but significant inhibition | Less effective, but significant inhibition |  |  | 
CSCC[C@H](N)C(=O)O [L-methionine] | Less effective, but significant inhibition | Less effective, but significant inhibition |  |  | 
N[C@@H](Cc1ccccc1)C(=O)O [L-phenylalanine] | Less effective, but significant inhibition | Less effective, but significant inhibition |  |  | 
NC(=O)C[C@H](N)C(=O)O [L-asparagine] | Less effective, but significant inhibition | Less effective, but significant inhibition |  |  | 
NC(=O)CC[C@H](N)C(=O)O [L-glutamine] | Inactive | Inactive |  |  | 
N[C@@H](CSSC[C@H](N)C(=O)O)C(=O)O [L-cystine] | Inactive | Inactive |  |  | 
NCCCC[C@H](N)C(=O)O [L-lysine] | Inactive | Inactive |  |  | 
N[C@@H](CS)C(=O)O [L-cysteine] | effective inhibition | effective inhibition |  |  | 
N[C@@H](CO)C(=O)O [L-serine] | effective inhibition | effective inhibition |  |  | 
C[C@@H](O)[C@H](N)C(=O)O [L-threonine] | effective inhibition | effective inhibition |  |  | 
N[C@@H](Cc1c[nH]cn1)C(=O)O [L-histidine] | Less effective, but significant inhibition | Less effective, but significant inhibition |  |  | 
C[C@H](N)C(=O)O [L-alanine] | effective inhibition | effective inhibition |  | completely block | completely blocks
NCC(=O)O [L-glycine] | effective inhibition | effective inhibition |  |  | 
